This is an account of results in the SangsterLogP compilation.

For orientation: logP means the decadic logarithm of the partition coefficient of the neutral form, usually between octanol and water. Low values mean a more hydrophilic compound, high ones a more lipophilic compound. With `CC12CCC(=O)C=C1CCC1C3CCC(O)(C(=O)CO)C3(C)CC(=O)C12F` (centres undefined), the logP amounted to 1.37. Next, `CCC(=O)O[C@]1(C(=O)CCl)[C@@H](C)C[C@H]2[C@@H]3CCC4=CC(=O)C=C[C@]4(C)[C@@]3(F)[C@@H](O)C[C@@]21C`: 3.18; `C[C@]12C=CC(=O)C=C1CC[C@H]1[C@@H]3CC[C@](O)(C(=O)CO)[C@@]3(C)C[C@H](O)[C@@]12F`: 1.51; `CCCCC(=O)OCC(=O)[C@@]1(O)[C@@H](C)C[C@H]2[C@@H]3CCC4=CC(=O)C=C[C@]4(C)[C@@]3(F)[C@@H](O)C[C@@]21C`: 3.87. The value for `CCC(=O)OCC(=O)[C@@]1(O)[C@@H](C)C[C@H]2[C@@H]3CCC4=CC(=O)C=C[C@]4(C)[C@@]3(F)[C@@H](O)C[C@@]21C` was 3.06; that for `CCCC(=O)OCC(=O)C1(O)C(C)CC2C3CCC4=CC(=O)C=CC4(C)C3(F)C(O)CC21C` (centres undefined) was 3.55. As to `CC(=O)OC1(C(=O)CO)CCC2C3CCC4=CC(=O)C=CC4(C)C3C(=O)CC21C` (centres undefined), the logP was found to be 2.43. Next, `CCCCC(=O)OCC(=O)[C@@]1(O)CC[C@H]2[C@@H]3CCC4=CC(=O)CC[C@]4(C)[C@H]3[C@@H](O)C[C@@]21C`: 3.62.

In the case of `C[C@H]1C[C@H]2[C@@H]3CCC4=CC(=O)C=C[C@]4(C)[C@@]3(F)C(=O)C[C@]2(C)[C@@]1(O)C(=O)CCl`, the log partition coefficient (logP) came out at 2.61. Next, `CCCCC(=O)O[C@]1(C(=O)CO)CC[C@H]2[C@@H]3CCC4=CC(=O)C=C[C@]4(C)[C@H]3[C@@H](O)C[C@@]21C`: 3.82; `C[C@]12C[C@H](O)[C@H]3[C@@H](CCC4=CC(=O)CC[C@@]43C)[C@@H]1CC[C@@H]2C(=O)CO`: 2.06; `C[C@H]1C[C@H]2[C@@H]3CCC4=CC(=O)C=C[C@]4(C)[C@@]3(F)[C@@H](O)C[C@]2(C)[C@@]1(O)C(=O)CCl`: 2.48.

`CCC(=O)O[C@]1(C(=O)CCl)[C@@H](C)C[C@H]2[C@@H]3CCC4=CC(=O)C=C[C@]4(C)[C@H]3C(=O)C[C@@]21C` came in with a log partition coefficient (logP) of 3.3.

On to `CCCC(=O)OCC(=O)[C@@]1(O)CCC2C3CCC4=CC(=O)CC[C@]4(C)C3C(O)C[C@@]21C` (some centres undefined), for which the lipophilicity (logP) worked out at 2.91. Next, `CC(=O)O[C@]1(C(=O)CO)CC[C@H]2[C@@H]3CCC4=CC(=O)CC[C@]4(C)[C@H]3C(=O)C[C@@]21C`: 2.45; `CCCC(=O)O[C@]1(C(=O)CCl)[C@@H](C)C[C@H]2[C@@H]3CCC4=CC(=O)C=C[C@]4(C)[C@@]3(F)[C@@H](O)C[C@@]21C`: 3.63; `CC(=O)[C@@]1(O)[C@@H](C)C[C@H]2[C@@H]3CCC4=CC(=O)C=C[C@]4(C)[C@@]3(F)[C@@H](O)C[C@@]21C`: 2.35. Next, `CCC(=O)OCC(=O)[C@@]1(O)CC[C@H]2[C@@H]3CCC4=CC(=O)CC[C@]4(C)[C@H]3[C@@H](O)C[C@@]21C`: 2.8; `C[C@]12C=CC(=O)C=C1CC[C@@H]1[C@@H]2[C@@H](O)C[C@@]2(C)[C@H]1CC[C@]2(O)C(=O)CO`: 1.58. As to `CCC(=O)O[C@]1(C(=O)CBr)[C@@H](C)C[C@H]2[C@@H]3CCC4=CC(=O)C=C[C@]4(C)[C@@]3(F)C(=O)C[C@@]21C`, the logP amounted to 3.55. Next, `CCC(=O)O[C@]1(C(=O)CCl)[C@@H](C)C[C@H]2[C@@H]3CCC4=CC(=O)C=C[C@]4(C)[C@H]3[C@@H](O)C[C@@]21C`: 3.34; `CCC(=O)O[C@]1(C(=O)CCl)[C@@H](C)C[C@H]2[C@@H]3CCC4=CC(=O)C=C[C@]4(C)[C@@]3(Cl)[C@@H](O)C[C@@]21C`: 3.28. Next, `CCC(=O)O[C@]1(C(C)=O)[C@@H](C)C[C@H]2[C@@H]3CCC4=CC(=O)C=C[C@]4(C)[C@@]3(F)C(=O)C[C@@]21C`: 3.09; `CCCCC(=O)OCC(=O)[C@@]1(OC(=O)CCCC)[C@@H](C)C[C@H]2[C@@H]3CCC4=CC(=O)C=C[C@]4(C)[C@@]3(F)[C@@H](O)C[C@@]21C`: 5.26. `CCCC(=O)O[C@]1(C(=O)CO)CC[C@H]2[C@@H]3CCC4=CC(=O)CC[C@]4(C)[C@H]3[C@@H](O)C[C@@]21C` returned a logP of 3.18. Next, `CCCC(=O)O[C@]1(C(=O)CCl)[C@@H](C)C[C@H]2[C@@H]3CCC4=CC(=O)C=C[C@]4(C)[C@@]3(F)C(=O)C[C@@]21C`: 3.76; `CCCCC(=O)O[C@]1(C(=O)CO)CC[C@H]2[C@@H]3CCC4=CC(=O)CC[C@]4(C)[C@H]3[C@@H](O)C[C@@]21C`: 3.79; `CCC(=O)O[C@]1(C(=O)CO)CC[C@H]2[C@@H]3CCC4=CC(=O)CC[C@]4(C)[C@H]3[C@@H](O)C[C@@]21C`: 2.7. The value for `CCC(=O)O[C@]1(C(=O)CCl)[C@@H](C)C[C@H]2[C@@H]3CCC4=CC(=O)C=C[C@]4(C)[C@@]3(F)C(=O)C[C@@]21C` was 3.46.
